Assay results: ChEMBL document CHEMBL4330117, “Synthesis, biological evaluation and molecular docking of benzimidazole grafted benzsulfamide-containing pyrazole ring derivatives as novel tubulin polymerization inhibitors” (Bioorg Med Chem, 2019)
Calls of active or inactive are those of the source. No cut-off for these calls is given here.

How the values were obtained:
A549 [1] = assay: Induction of apoptosis in human A549 cells assessed as late apoptotic cells at 0.5 uM after 24 hrs by Annexin V-FITC/propidium iodide staining-based flow cytometric analysis (reference value: 3.55%); type: functional
Tubulin (Bos taurus) [2] = biological target: T1, Tubulin (Bos taurus) (UniProt Q6B856+Q862L2+Q862F3); assay: Inhibition of [3H]colchicine binding to bovine brain tubulin at 5 uM
Tubulin (Homo sapiens) [3] = biological target: T2, Tubulin (Homo sapiens) (UniProt P68371+Q9H4B7+P0DPH7+P68366+Q13509+Q71U36+P04350+Q3ZCM7+P07437+P68363+Q9BQE3+Q6PEY2+Q13885+Q9BVA1+Q9BUF5); assay: Induction of microtubule disruption in human A549 cells assessed as cell contraction at 0.2 uM after 24 hrs by rhodamine and DAPI staining based immunofluorescence microscopic analysis
A549 [4] = assay: Cell cycle arrest in human A549 cells assessed as accumulation at G2/M phase at 0.5 uM after 24 hrs by propidium iodide/RNase A staining-based flow cytometric analysis (reference value: 17.62%); type: functional
A549 [5] = assay: Cell cycle arrest in human A549 cells assessed as accumulation at G1 phase at 0.5 uM after 24 hrs by propidium iodide/RNase A staining-based flow cytometric analysis (reference value: 71.02%); type: functional
[6] = Cytotoxicity against HEK293T cells after 24 hrs by MTT assay; type: cell-based, HEK-293T; conditions: human
HepG2 = assay: Antiproliferative activity against human HepG2 cells after 24 hrs by MTT assay; type: functional, cell-based; conditions: HepG2, 24 h
[7] = Cytotoxicity against mouse primary hepatocytes after 24 hrs by MTT assay; type: cell-based, Hepatocyte
A549 [8] = assay: Cell cycle arrest in human A549 cells assessed as accumulation at G1 phase at 0.3 uM after 24 hrs by propidium iodide/RNase A staining-based flow cytometric analysis (reference value: 71.02%); type: functional
A549 [9] = assay: Induction of apoptosis in human A549 cells assessed as necrotic cells at 0.3 uM after 24 hrs by Annexin V-FITC/propidium iodide staining-based flow cytometric analysis (reference value: 10.8%); type: functional
A549 [10] = assay: Induction of microtubule disruption in human A549 cells assessed as spindle microtubule disorganization accompanied by misaligned chromosomes from metaphase plate at 0.5 uM after 24 hrs by rhodamine and DAPI staining based immunofluorescence microscopic analysis; type: functional, cell-based
A549 [11] = assay: Induction of apoptosis in human A549 cells assessed as upregulation of cleaved caspase-3 level up to 0.5 uM after 24 hrs by Western blot analysis; type: functional, cell-based
A549 [12] = assay: Induction of apoptosis in human A549 cells assessed as early apoptotic cells at 0.3 uM after 24 hrs by Annexin V-FITC/propidium iodide staining-based flow cytometric analysis (reference value: 2.81%); type: functional
A549 [13] = assay: Cell cycle arrest in human A549 cells assessed as accumulation at S phase at 0.5 uM after 24 hrs by propidium iodide/RNase A staining-based flow cytometric analysis (reference value: 11.36%); type: functional
A549 [14] = assay: Induction of apoptosis in human A549 cells assessed as downregulation of Bcl2 level up to 0.5 uM after 24 hrs by Western blot analysis; type: functional, cell-based
A549 [15] = assay: Cell cycle arrest in human A549 cells assessed as upregulation of cyclin B1 expression level after 24 hrs by Western blot analysis; type: functional, cell-based
A549 [16] = assay: Antiproliferative activity against human A549 cells after 24 hrs by MTT assay; type: functional, cell-based; conditions: A549, 24 h
A549 [17] = assay: Induction of apoptosis in human A549 cells assessed as late apoptotic cells at 0.3 uM after 24 hrs by Annexin V-FITC/propidium iodide staining-based flow cytometric analysis (reference value: 3.55%); type: functional
MCF7 = assay: Antiproliferative activity against human MCF7 cells after 24 hrs by MTT assay; type: functional, cell-based; conditions: MCF7, 24 h
A549 [18] = assay: Cell cycle arrest in human A549 cells assessed as accumulation at S phase at 0.1 uM after 24 hrs by propidium iodide/RNase A staining-based flow cytometric analysis (reference value: 11.36%); type: functional
A549 [19] = assay: Cell cycle arrest in human A549 cells assessed as accumulation at G2/M phase at 0.3 uM after 24 hrs by propidium iodide/RNase A staining-based flow cytometric analysis (reference value: 17.62%); type: functional
A549 [20] = assay: Induction of apoptosis in human A549 cells assessed as upregulation of Bax level up to 0.5 uM after 24 hrs by Western blot analysis; type: functional, cell-based
A549 [21] = assay: Cell cycle arrest in human A549 cells assessed as downregulation of Cdc2 expression level after 24 hrs by Western blot analysis; type: functional, cell-based
A549 [22] = assay: Cell cycle arrest in human A549 cells assessed as downregulation of cdc25c expression level after 24 hrs by Western blot analysis; type: functional, cell-based
A549 [23] = assay: Induction of apoptosis in human A549 cells assessed as late apoptotic cells at 0.1 uM after 24 hrs by Annexin V-FITC/propidium iodide staining-based flow cytometric analysis (reference value: 3.55%); type: functional
Tubulin (Homo sapiens) [24] = biological target: T2, Tubulin (Homo sapiens); assay: Induction of microtubule disruption in human A549 cells assessed as cell rounding at 0.2 uM after 24 hrs by rhodamine and DAPI staining based immunofluorescence microscopic analysis
A549 [25] = assay: Cell cycle arrest in human A549 cells assessed as accumulation at S phase at 0.3 uM after 24 hrs by propidium iodide/RNase A staining-based flow cytometric analysis (reference value: 11.36%); type: functional
Rattus norvegicus = assay: Antitumor activity against rat hepatoma H22 cells implanted in mouse assessed as reduction in tumor volume at 3 mg/kg, ip measured after 8 to 28 days; type: functional, organism-based
[26] = Toxicity in mouse xenografted with rat H22 cells assessed as weight loss at 3 mg/kg, ip measured after 28 days; type: organism-based; conditions: in vivo, 672 h
HeLa = assay: Antiproliferative activity against human HeLa cells after 24 hrs by MTT assay; type: functional, cell-based
A549 [27] = assay: Induction of apoptosis in human A549 cells assessed as early apoptotic cells at 0.5 uM after 24 hrs by Annexin V-FITC/propidium iodide staining-based flow cytometric analysis (reference value: 2.81%); type: functional
A549 [28] = assay: Induction of apoptosis in human A549 cells assessed as viable cells at 0.1 uM after 24 hrs by Annexin V-FITC/propidium iodide staining-based flow cytometric analysis (reference value: 82.8%); type: functional; conditions: A549, 24 h, read-out: Activity
A549 [29] = assay: Cell cycle arrest in human A549 cells assessed as upregulation of p21 expression level after 24 hrs by Western blot analysis; type: functional, cell-based
A549 [30] = assay: Cell cycle arrest in human A549 cells assessed as accumulation at G2/M phase at 0.1 uM after 24 hrs by propidium iodide/RNase A staining-based flow cytometric analysis (reference value: 17.62%); type: functional
A549 [31] = assay: Induction of apoptosis in human A549 cells assessed as early apoptotic cells at 0.1 uM after 24 hrs by Annexin V-FITC/propidium iodide staining-based flow cytometric analysis (reference value: 2.81%); type: functional
A549 [32] = assay: Induction of apoptosis in human A549 cells assessed as necrotic cells at 0.1 uM after 24 hrs by Annexin V-FITC/propidium iodide staining-based flow cytometric analysis (reference value: 10.8%); type: functional
A549 [33] = assay: Induction of apoptosis in human A549 cells assessed as necrotic cells at 0.5 uM after 24 hrs by Annexin V-FITC/propidium iodide staining-based flow cytometric analysis (reference value: 10.8%); type: functional
A549 [34] = assay: Cell cycle arrest in human A549 cells assessed as accumulation at G1 phase at 0.1 uM after 24 hrs by propidium iodide/RNase A staining-based flow cytometric analysis (reference value: 71.02%); type: functional
A549 [35] = assay: Induction of apoptosis in human A549 cells assessed as viable cells at 0.3 uM after 24 hrs by Annexin V-FITC/propidium iodide staining-based flow cytometric analysis (reference value: 82.8%); type: functional; conditions: A549, 24 h, read-out: Activity
A549 [36] = assay: Induction of apoptosis in human A549 cells assessed as upregulation of cleaved PARP level up to 0.5 uM after 24 hrs by Western blot analysis; type: functional, cell-based
A549 [37] = assay: Induction of apoptosis in human A549 cells assessed as viable cells at 0.5 uM after 24 hrs by Annexin V-FITC/propidium iodide staining-based flow cytometric analysis (reference value: 82.8%); type: functional; conditions: A549, 24 h, read-out: Activity
Tubulin (Bos taurus) [38] = biological target: T1, Tubulin (Bos taurus); assay: Inhibition of vinblastine binding to bovine brain tubulin at 5 uM
A549 [39] = assay: Cell cycle arrest in human A549 cells assessed as accumulation at G2/M phase after 24 hrs by propidium iodide/RNase A staining-based flow cytometric analysis; type: functional

inhibition (Tubulin (Bos taurus) [2]): 91%
Activity (Tubulin (Homo sapiens) [3]): Active
IC50 (HepG2): 330 nM
IC50 (A549 [16]): 150 nM
IC50 (MCF7): 170 nM
Activity (Tubulin (Homo sapiens) [24]): Active
IC50 (HeLa): 210 nM
inhibition (Tubulin (Bos taurus) [38]): 0.06%
Structure (SMILES): Cc1ccc(C)c(S(=O)(=O)n2c(-c3cn(-c4ccccc4)nc3-c3ccc(C(F)(F)F)cc3)nc3ccccc32)c1
Activity (A549 [1]): 8.74%
Activity (A549 [4]): 40.26%
Activity (A549 [5]): 47.63%
CC50 at 24 h [6]: 223000 nM
CC50 at 24 h [7]: 132000 nM
Activity (A549 [8]): 53.31%
Activity (A549 [9]): 16.3%
Activity (A549 [10]): Active
Activity (A549 [11]): Active
Activity (A549 [12]): 6.69%
Activity (A549 [13]): 12.11%
Activity (A549 [14]): Active
Activity (A549 [15]): Dose-dependent effect
Activity (A549 [17]): 5.95%
Activity (A549 [18]): 14.42%
Activity (A549 [19]): 28.13%
Activity (A549 [20]): Active
Activity (A549 [21]): Dose-dependent effect
Activity (A549 [22]): Dose-dependent effect
Activity (A549 [23]): 4.9%
Activity (A549 [25]): 18.56%
Activity (Rattus norvegicus): Active
Activity [26]: Non-Toxic
Activity (A549 [27]): 10.1%
viability at 0.1 µM (A549 [28]): 78.6%
Activity (A549 [29]): Dose-dependent effect
Activity (A549 [30]): 22.63%
Activity (A549 [31]): 3.08%
Activity (A549 [32]): 13.4%
Activity (A549 [33]): 18.2%
Activity (A549 [34]): 62.95%
viability at 0.3 µM (A549 [35]): 71%
Activity (A549 [36]): Active
viability at 0.5 µM (A549 [37]): 62.9%
Activity (A549 [39]): Dose-dependent effect
